In patent publication US20020058244A1, “Method for detecting uracil biosynthesis inhibitors and their use as herbicides” (priority 2000, published 2002):
“Also recorded” adds a separate entry of the source. Where two headings read alike, the source gives them in different places.

Assays:
[1] = test system: grass species; assay: Greenhouse herbicide efficacy, preemergence and post-emergence, whole plant injury; assay type: in vivo; conditions: preemergence and post-emergence applications
Source text: (§1) The compounds were applied to flats containing individually potted plant species as post-emergent treatments, or seeded flats without emerged plants for preemergent treatments. The compounds were delivered in an 80% acetone solution plus 0.2% X-77. After two or three weeks of treatment, plants were rated compared to controls on a scale of 0 to 9 where 0 represents no injury and 9 represents 100% injury.

[2] = test system: wheat; assay: Greenhouse herbicide efficacy, crop safety; assay type: in vivo; conditions: preemergence and post-emergence applications
Source text: as §1

[3] = test system: Arabidopsis; assay: Arabidopsis 96 well microtiter plate injury and reversal test; assay type: in vivo; conditions: for reversal of lethal effects by uridine: 100 μM uridine; for uracil biosynthesis inhibitory activity: reversal assay, see Table III
Protocol: The compounds were tested in a 96 microtiter well plate containing various concentrations of probe compound with or without intermediates of the pyrimidine and purine biosynthesis pathways to detect reversal of injury. Plates were filled with 0.7% agar medium, seeded with Arabidopsis, and placed in a growth chamber for several days to allow for seed germination and plant growth. Arabidopsis plates were rated on a scale from 0 to 9 where 0 represents no injury, and 9 represents no germination. In addition, injury symptoms observed were recorded.

[4] = test system: uracil biosynthesis pathway; assay: [14C]-carbamoyl aspartate incorporation into uracil/uridine and orotate in soybean cell cultures; assay type: cell-based
Protocol: Soybean suspension cultures in the linear growth phase were used for [^14C]carbamoyl aspartate uptake and incorporation studies. Cells were treated with 0.01 uM [^14C]carbamoyl aspartate (approximately 200,000-400,000 dpm) with or without 100 uM compound “B”. Over time, aliquots were harvested by filtration, and rinsed thoroughly with potassium phosphate buffer, pH 3.11. Aliquots of uptake media and rinse were counted using a liquid scintillation spectrophotometer to determine percent uptake. Cells were immediately weighed, ground to a fine powder in liquid nitrogen, and suspended in 50% methanol. The homogenate was centrifuged at 10,000 g for 20 min. A portion of the pellet was weighed out and combusted to determine dpm's associated with this fraction. An aliquot of the supernatant was counted to determine the amount of label in the soluble fraction. Recovery of applied radiolabeled [^14C]carbamyol aspartate was 90-100%.
The soluble supernatant was concentrated overnight by lyophilization, and the extract was resuspended in 1 ml potassium phosphate buffer, pH 3.11. For HPLC analysis an anion exchange column was used with 85:15% potassium phosphate buffer, pH 3.11 and acetonitrile as running buffers. Fractions (1 ml) were collected for 20 min (flow rate […]), and counted using a liquid scintillation counter (LSC). UV absorbance was analyzed at 260 and 275 nm as the optimum absorbency wavelengths for UMP and orotate, respectively. Standards were used to identify the various peaks from the HPLC profile. Standard retention times under these conditions were: 3-4 min uracil/uridine, 7-9 min carbamoyl aspartate, 11-13 min UMP, and 17-19 min orotate.

[5] = test system: OPRTase/ODCase; assay: In vitro enzymatic conversion of [14C]-orotate to UMP, cell free extract from corn root tissue; assay type: biochemical; conditions: for effect on OPRTase/ODCase activity (conversion of [14C]-orotate to UMP): cell free extract
Protocol: (§2) Etiolated corn roots and shoots or soybean suspension cells were used as tissue. Corn seedlings were germinated on vermiculite for 4 days in the dark at 26_C. and roots and shoots harvested separately. The soybean cells were grown in media consisting of Muashige and Skoog salts (Physiol. Plant (1962) 15:473-497) purchased from Gibco/BRL, vitamins (glycine 2 mg/L, thiamine 0.1 mg/L, nicotinic acid 0.5 mg/L, pyridoxine-HCl 0.5 mg/L), myo-inositol (100 mg/L), 2,4-D ([…]), and 30 g/L sucrose. Cell cultures are grown at 25° C. with gentle shaking. Cultures were transfered every 7 days to new growth media.
(§3) Approximately 5-10 g plant tissue were ground in liquid nitrogen and resuspended in 1:2 (w/v) homogenization buffer (30 mM KPO4^−; 25 mM […], 5 mM MgCl2, 5 mM ascorbic acid, pH 7.2). The homogenate was centrifuged at 10,000 g for 20 min, and the supernatant desalted using BioRad columns. The desalted supernatant was used for OPRTase/ODCase enzyme assays. For DHOD enzyme extraction, the supernatant was further centrifuged at 100,000 g for 45 min to obtain a microsomal pellet. The microsomal pellet was resuspended in 3-4 ml resuspension buffer (70 mM Tris-base, pH 7.4) containing 1% Triton X-100.
All enzyme assays were performed according to Rawls, J. M. (1978) Anal. Biochem. 86 (1): 107-117 and Cleaveland et al. (1995). Biochem. Pharm. 49(7):947-954. Enzyme assays were performed in a total volume of 200 ul with 1 uM [^14C]carbamoyl aspartate, [^14C]dihydroorotate or [^14C]orotate as substrates, and 1-5 mM probe compound or barbiturate as inhibitors. The [^14C]carbamoyl aspartate and [^14C]dihydroorotate assay was performed using a potassium phosphate buffer, pH 7.4 with 12 mM NAD^+, and 10 mM MgCl2. […] Over time, 25 ul aliquots were taken from the reaction tube and boiled for 5 min to stop the reaction. Samples were spotted onto cellulose TLC plates and run using 0.1 M potassium phosphate buffer, 100% ammonium sulfate, and 1-propanol (10:6:1). Plates were developed using a TLC plate radioisotope detector. Orotate and UMP standards were run next to unknowns to identify the conversion of [^14C]orotate to [^14C]UMP in the enzyme assay.

[6] = test system: DHOD; assay: In vitro conversion of [14C]dihydroorotate to orotate, corn root microsomal preparation; assay type: biochemical
Protocol: as §2, §3
(§4) All enzyme assays were performed according to Rawls, J. M. (1978) Anal. Biochem. 86 (1): 107-117 and Cleaveland et al. (1995). Biochem. Pharm. 49(7):947-954. Enzyme assays were performed in a total volume of 200 ul with 1 uM [^14C]carbamoyl aspartate, [^14C]dihydroorotate or [^14C]orotate as substrates, and 1-5 mM probe compound or barbiturate as inhibitors. The [^14C]carbamoyl aspartate and [^14C]dihydroorotate assay was performed using a potassium phosphate buffer, pH 7.4 with 12 mM NAD^+, and 10 mM MgCl2. The [^14C]orotate enzyme assay was performed using Tris buffer, pH 8.8 with 12 mM PRPP and 10 mM MgCl2. Over time, 25 ul aliquots were taken from the reaction tube and boiled for 5 min to stop the reaction. Samples were spotted onto cellulose TLC plates and run using 0.1 M potassium phosphate buffer, 100% ammonium sulfate, and 1-propanol (10:6:1). Plates were developed using a TLC plate radioisotope detector. Orotate and UMP standards were run next to unknowns to identify the conversion of [^14C]orotate to [^14C]UMP in the enzyme assay.

[7] = test system: DHO; assay: In vitro conversion of [14C]dihydroorotate to carbamoyl aspartate, corn root microsomal preparation; assay type: biochemical
Protocol: as §2, §3, §4

[8] = Stability in aqueous solution by mass spectroscopy and NMR; assay type: physicochemical; conditions: for half-life: aqueous solution
Protocol: The stability analysis of the compound “B”, compound “C”, compound “G”, and compound “E” compounds was performed using a Hewlett Packard HP1100 LC system coupled to a Micromass Platfom-LC mass spectrometer operating with an electrospray ionization source. In positive ion electrospray, AC12254 82A produced molecules at m/z 112(M^+), m/z 153 (M+41) at a cone voltage of 30V. Retention time of AC 12254 82A was 12.54 min with absorption maxima of 248 and 314 nm.
Column: Hypersil Spherisorb Waters ODS(2), 3.6×150 mm
Eluent: 60% acetonitrile, 40% water (0.1% formic acid)
Photodiode Array Detection: Scan Range: 190-600 nm
1H NMR was taken in DMSO-d6 on a 500 MHZ Bruker NMR Spectrometer. […] Each had 5 protons as follows: NH, 2OH and 2 CH.

[9] = molecular target: T1, ODCase (Rattus norvegicus, UniProt A0ACM8Q7Z8); conditions: rat brain tissue; cited from earlier work
T1 construct: host or cells: rat brain tissue
T1 sequence (A0ACM8Q7Z8 entry or part of it): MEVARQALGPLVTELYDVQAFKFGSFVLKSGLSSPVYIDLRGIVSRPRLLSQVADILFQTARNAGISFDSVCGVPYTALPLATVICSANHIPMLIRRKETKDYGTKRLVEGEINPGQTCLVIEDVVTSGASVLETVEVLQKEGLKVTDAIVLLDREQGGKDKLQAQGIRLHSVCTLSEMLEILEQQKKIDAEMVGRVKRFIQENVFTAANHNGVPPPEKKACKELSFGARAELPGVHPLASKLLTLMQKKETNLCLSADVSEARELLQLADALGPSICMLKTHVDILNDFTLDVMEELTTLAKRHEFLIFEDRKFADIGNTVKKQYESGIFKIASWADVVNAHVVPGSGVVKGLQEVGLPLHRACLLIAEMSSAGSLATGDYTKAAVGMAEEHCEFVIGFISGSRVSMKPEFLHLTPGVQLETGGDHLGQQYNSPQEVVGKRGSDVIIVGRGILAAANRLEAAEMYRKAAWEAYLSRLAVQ

## O=C1NN=C/C1=C/Nc1ccc(F)cc1F [B, 4-[[(2,4-difluorophenyl)amino]methylene]-2,4-dihydro-3H-pyrazol-3-one]
[1]
  herbicidal effect, injury: ≥ 50%
[2]
  crop safety: safety on wheat
[3]; 1 μM
  germination of Arabidopsis seeds: normal germination
[3]; 16 μM
  germination of Arabidopsis seeds: partial germination
[3]; 30 uM combined with 100 uM uracil
  growth inhibition: 0%
[3]; 50 μM
  germination of Arabidopsis seeds: not observed
[3]; 100 μM
  germination of Arabidopsis seeds: not observed
[3]; 100 uM antidote in growth media
  reversal of injury by uracil, UMP and uridine: reversed
[3]; highest tested concentration of compound
  reversal of lethal effects by uridine: does not reverse
[3]; lower concentrations of compound (Rows 2-4)
  reversal of lethal effects by uridine: reversed
[3]; 500 μM
  germination of Arabidopsis seeds: not observed
[3]; Arabidopsis thaliana, 30 uM, compound alone, read-out: growth inhibition
  inhibition at 30 µM: 50%
[3]; Arabidopsis thaliana, 96 well microtiter plate, read-out: estimated IC50 on Arabidopsis
  IC50: 30 µM
[3]; in vivo
  reversal of herbicidal effects by orotate or OMP: did not reverse
  reversal of herbicidal effects by vitamins or purines: Neither vitamins nor purines reversed
  reversal of lethal effects by adenine, cytosine, guanine, and thymidine: did not reverse
[4]; 50 μM
  incorporation of radiolabeled carbamoyl aspartate into uracil/uridine: 25%
[4]; 100 μM
  incorporation of radiolabeled carbamoyl aspartate into uracil/uridine: 10%
[4]; 100 uM, HPLC profile FIG. 6
  incorporation of [14C]-carbamoyl aspartate into orotate peak (16-19 min): 70%
[4]; 100 μM, listed as probe compound
  incorporation of radiolabeled carbamoyl aspartate into uracil/uridine: 19%
[4]; 1 and 10 μM
  incorporation of radiolabeled carbamoyl aspartate into orotic acid: 0-5%
  incorporation of radiolabeled carbamoyl aspartate into uracil/uridine: 80-90%
[4]; 50 and 100 μM
  incorporation of radiolabeled carbamoyl aspartate into orotic acid: 45-60%
[4]; Glycine max, soybean cell cultures, estimated, read-out: IC50 of inhibition of [14C]-carbamoyl aspartate incorporation
  IC50: ~50 µM
[5]; 15 minutes after treatment, 100 μM PRPP, untreated control 55%
  radiolabeled orotate converted to UMP: 55%
[5]
  effect on OPRTase/ODCase activity (conversion of [14C]-orotate to UMP): does not affect
[5]; listed as probe compound
  effect on OPRTase/ODCase activity (conversion of [14C]-orotate to UMP): did not inhibit
[6]
  effect on DHOD activity (dihydroorotate converted to orotate) versus untreated control: no difference
[6]; listed as probe compound
  effect on DHOD activity (dihydroorotate converted to orotate) versus untreated control: did not inhibit
[7]
  effect on DHO activity (dihydroorotate converted to carbamoyl aspartate) versus untreated control: no difference
[7]; listed as probe compound
  effect on DHO activity (dihydroorotate converted to carbamoyl aspartate) versus untreated control: did not inhibit
[8]
  half-life: < 24 h

## O=c1cnn([C@@H]2O[C@H](CO)[C@@H](O)[C@H]2O)c(=O)[nH]1 [Compound 6-Azauridine, 6-Azauridine, reference compound]
[5]
  effect on OPRTase/ODCase activity (conversion of [14C]-orotate to UMP): not shown to inhibit

## O=c1[nH][nH]cc1C=NO [D, 2,3-dihydro-3-oxo-1H-pyrazole-4-carboxaldehyde-4-oxime]
[6]
  effect on DHOD activity (dihydroorotate converted to orotate) versus untreated control: no difference
[7]
  effect on DHO activity (dihydroorotate converted to carbamoyl aspartate) versus untreated control: no difference

## CN(C)C=C1C=NNC1=O [E, 4-[(dimethylamino)methylene]-2,4-dihydro-3H-pyrazol-3-one]
[3]
  uracil biosynthesis inhibitory activity: significant
[8]
  stability in aqueous solution: stable in aqueous solution with no hydrolysis detected; also recorded: stable

## CN1N=CC(=CNc2ccc(F)cc2F)C1=O [G, 4-[[(2,4-difluorophenyl)amino]methylene]-2,4-dihydro-2-methyl-3H-pyrazol-3-one]
[3]
  uracil biosynthesis inhibitory activity: only marginal
[8]
  stability in aqueous solution: relatively stable
  half-life: > 24 h

## O=C(O)C1C=NNC1=O (stereo not shown) [J, 4,5-dihydro-5-oxo-1H-pyrazole-4-carboxylic acid; or 2,3-dihydro-3-oxo-1H-pyrazole-4-carboxylic acid]
[6]
  effect on DHOD activity (dihydroorotate converted to orotate) versus untreated control: no difference
[7]
  effect on DHO activity (dihydroorotate converted to carbamoyl aspartate) versus untreated control: no difference

## O=C1CC(=O)N([C@@H]2O[C@H](COP(=O)(O)O)[C@@H](O)[C@H]2O)C(=O)N1 [ribotide of barbiturate]
[9]
  Ki: 0.0041 µM
